Earlier results, collected in article PMC9851200, “Multiparameter phenotypic screening for endogenous TFEB and TFE3 translocation identifies novel chemical series modulating lysosome function” (Autophagy, 2022).

What was measured:
Design in all cases: method as in original PKIS2 published data
[1] = biological target: kinases (KINOMEscan panel) (Homo sapiens, UniProt O94921); conditions: Published KINOMEscan; ref original PKIS2 published data; cited from earlier work
[2] = biological target: kinases (KINOMEscan panel) (Homo sapiens, UniProt P11802); conditions: Published KINOMEscan, ref original PKIS2 published data, cited from earlier work
[3] = biological target: T1, kinases (KINOMEscan panel) (Homo sapiens, UniProt P21709); conditions: EPHA1; Published KINOMEscan; ref original PKIS2 published data; cited from earlier work
T1 sequence (P21709 26-976): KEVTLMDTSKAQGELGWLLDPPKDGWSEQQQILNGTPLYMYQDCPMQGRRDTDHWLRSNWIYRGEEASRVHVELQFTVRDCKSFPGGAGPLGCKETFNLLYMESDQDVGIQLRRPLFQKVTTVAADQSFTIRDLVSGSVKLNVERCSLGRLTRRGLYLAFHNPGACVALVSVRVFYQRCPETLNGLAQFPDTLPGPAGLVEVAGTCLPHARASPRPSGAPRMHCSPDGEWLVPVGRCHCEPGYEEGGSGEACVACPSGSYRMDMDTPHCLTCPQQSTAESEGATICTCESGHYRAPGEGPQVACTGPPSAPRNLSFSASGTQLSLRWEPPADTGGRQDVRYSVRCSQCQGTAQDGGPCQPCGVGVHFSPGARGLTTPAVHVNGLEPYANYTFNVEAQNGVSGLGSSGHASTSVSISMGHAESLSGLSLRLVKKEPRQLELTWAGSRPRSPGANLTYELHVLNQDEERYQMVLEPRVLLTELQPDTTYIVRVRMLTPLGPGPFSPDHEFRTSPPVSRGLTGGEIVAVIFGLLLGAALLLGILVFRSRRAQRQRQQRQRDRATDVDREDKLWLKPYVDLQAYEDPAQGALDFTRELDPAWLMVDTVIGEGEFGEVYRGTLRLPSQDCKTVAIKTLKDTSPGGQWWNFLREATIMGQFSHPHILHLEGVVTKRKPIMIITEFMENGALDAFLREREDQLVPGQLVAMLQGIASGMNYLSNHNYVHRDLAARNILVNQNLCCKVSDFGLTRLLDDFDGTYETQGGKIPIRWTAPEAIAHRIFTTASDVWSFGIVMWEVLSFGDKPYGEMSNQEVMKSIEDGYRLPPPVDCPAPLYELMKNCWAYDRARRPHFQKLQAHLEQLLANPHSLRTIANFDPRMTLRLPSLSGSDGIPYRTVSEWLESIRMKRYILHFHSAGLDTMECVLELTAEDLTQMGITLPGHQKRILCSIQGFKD

[4] = biological target: T2, kinases (KINOMEscan panel) (Homo sapiens, UniProt P54760); conditions: EPHB4; Published KINOMEscan; ref original PKIS2 published data; cited from earlier work
T2 sequence (P54760 16-987): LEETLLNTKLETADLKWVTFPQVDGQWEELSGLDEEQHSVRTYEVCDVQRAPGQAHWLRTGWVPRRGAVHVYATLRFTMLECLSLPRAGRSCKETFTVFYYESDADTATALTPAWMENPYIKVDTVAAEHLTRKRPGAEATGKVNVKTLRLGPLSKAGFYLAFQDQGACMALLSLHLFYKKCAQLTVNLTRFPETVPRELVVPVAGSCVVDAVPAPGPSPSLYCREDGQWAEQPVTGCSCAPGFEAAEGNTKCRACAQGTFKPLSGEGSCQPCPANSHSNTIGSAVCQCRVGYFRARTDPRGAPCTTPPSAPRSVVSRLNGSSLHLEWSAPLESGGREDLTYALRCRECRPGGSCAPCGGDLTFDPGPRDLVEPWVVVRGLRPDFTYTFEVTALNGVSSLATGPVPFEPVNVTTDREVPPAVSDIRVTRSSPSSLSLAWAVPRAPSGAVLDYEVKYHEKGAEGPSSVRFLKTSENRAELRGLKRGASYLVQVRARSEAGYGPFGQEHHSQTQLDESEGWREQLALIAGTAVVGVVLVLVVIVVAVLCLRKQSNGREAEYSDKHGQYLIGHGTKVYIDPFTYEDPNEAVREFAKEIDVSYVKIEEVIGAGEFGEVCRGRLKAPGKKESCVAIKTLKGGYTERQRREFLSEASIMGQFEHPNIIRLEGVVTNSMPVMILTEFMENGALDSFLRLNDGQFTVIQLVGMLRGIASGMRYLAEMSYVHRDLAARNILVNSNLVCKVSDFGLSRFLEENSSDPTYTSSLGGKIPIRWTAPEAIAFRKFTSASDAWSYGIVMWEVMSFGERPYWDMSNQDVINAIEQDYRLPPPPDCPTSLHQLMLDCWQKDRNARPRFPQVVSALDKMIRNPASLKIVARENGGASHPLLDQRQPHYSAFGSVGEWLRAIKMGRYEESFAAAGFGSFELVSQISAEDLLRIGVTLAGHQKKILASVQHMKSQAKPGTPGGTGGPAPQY

[5] = biological target: kinases (KINOMEscan panel) (Homo sapiens, UniProt Q96GD4); conditions: kinase AURKB; Published KINOMEscan; ref original PKIS2 published data; cited from earlier work
[6] = biological target: kinases (KINOMEscan panel) (Homo sapiens, UniProt Q9UBF8); conditions: kinase PI4KB; Published KINOMEscan; ref original PKIS2 published data; cited from earlier work
Sequence of kinases (KINOMEscan panel) (Homo sapiens, UniProt Q9UBF8) (Q9UBF8 whole entry): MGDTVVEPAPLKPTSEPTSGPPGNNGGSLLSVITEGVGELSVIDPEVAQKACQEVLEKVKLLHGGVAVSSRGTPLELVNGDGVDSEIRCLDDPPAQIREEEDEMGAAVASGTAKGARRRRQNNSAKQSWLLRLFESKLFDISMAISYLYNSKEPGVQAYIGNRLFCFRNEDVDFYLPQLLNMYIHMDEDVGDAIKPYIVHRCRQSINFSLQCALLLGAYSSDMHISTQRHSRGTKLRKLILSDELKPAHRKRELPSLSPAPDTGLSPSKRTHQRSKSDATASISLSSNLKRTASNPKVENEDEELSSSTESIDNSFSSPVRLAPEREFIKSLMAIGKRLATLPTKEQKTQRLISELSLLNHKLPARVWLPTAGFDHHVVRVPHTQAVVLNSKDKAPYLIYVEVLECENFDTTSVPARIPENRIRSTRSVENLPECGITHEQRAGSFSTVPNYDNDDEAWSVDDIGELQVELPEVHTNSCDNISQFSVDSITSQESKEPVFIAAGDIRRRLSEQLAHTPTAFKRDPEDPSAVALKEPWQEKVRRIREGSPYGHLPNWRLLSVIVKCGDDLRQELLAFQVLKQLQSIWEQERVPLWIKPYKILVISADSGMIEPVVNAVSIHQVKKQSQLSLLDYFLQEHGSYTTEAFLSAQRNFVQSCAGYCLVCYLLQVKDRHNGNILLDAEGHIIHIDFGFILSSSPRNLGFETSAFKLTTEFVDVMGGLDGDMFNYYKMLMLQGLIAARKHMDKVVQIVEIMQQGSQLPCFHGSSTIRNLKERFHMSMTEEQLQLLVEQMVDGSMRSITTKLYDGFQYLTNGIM

Sequence of kinases (KINOMEscan panel) (Homo sapiens, UniProt P11802) (P11802 whole entry): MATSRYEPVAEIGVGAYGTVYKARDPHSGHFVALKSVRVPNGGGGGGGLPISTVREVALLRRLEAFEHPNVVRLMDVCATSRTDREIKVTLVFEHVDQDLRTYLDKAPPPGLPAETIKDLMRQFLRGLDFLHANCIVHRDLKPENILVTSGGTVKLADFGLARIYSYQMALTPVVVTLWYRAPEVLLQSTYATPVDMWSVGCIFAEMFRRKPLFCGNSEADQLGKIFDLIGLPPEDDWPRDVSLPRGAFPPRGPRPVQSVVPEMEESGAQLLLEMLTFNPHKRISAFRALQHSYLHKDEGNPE
Sequence of kinases (KINOMEscan panel) (Homo sapiens, UniProt Q96GD4) (Q96GD4 whole entry): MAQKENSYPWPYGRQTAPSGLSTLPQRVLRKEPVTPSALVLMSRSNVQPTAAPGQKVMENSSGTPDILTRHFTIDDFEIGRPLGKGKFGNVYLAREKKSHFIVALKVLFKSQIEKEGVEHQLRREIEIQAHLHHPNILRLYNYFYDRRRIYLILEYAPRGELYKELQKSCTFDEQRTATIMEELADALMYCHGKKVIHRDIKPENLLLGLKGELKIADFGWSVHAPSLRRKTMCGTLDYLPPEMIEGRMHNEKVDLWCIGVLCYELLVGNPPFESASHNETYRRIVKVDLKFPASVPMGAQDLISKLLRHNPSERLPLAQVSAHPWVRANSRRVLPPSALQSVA
Sequence of kinases (KINOMEscan panel) (Homo sapiens, UniProt O94921) (O94921 whole entry): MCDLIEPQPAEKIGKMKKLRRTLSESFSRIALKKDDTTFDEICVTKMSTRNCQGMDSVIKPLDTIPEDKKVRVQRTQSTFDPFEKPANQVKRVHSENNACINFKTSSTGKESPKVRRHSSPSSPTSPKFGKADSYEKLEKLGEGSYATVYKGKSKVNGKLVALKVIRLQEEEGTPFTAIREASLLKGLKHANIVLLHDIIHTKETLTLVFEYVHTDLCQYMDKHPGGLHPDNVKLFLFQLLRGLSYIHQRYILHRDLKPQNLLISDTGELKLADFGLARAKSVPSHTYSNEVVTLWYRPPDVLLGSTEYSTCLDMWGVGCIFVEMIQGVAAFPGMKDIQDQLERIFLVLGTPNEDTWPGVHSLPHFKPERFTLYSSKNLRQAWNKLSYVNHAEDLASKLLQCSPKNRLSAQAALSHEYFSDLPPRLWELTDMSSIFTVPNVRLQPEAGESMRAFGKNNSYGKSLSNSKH

Cc1cccc(-c2nc(Nc3ccncc3)c3ccccc3n2)n1 [NK215]
KINOMEscan CDK14 [1]: 0
KINOMEscan CDK4-cyclinD1 (???) CCND1 ([2]; CDK4-cyclinD1 (???) CCND1): 13
KINOMEscan CDK4-cyclinD3 ([2]; kinase CDK4-cyclinD3): 0
KINOMEscan CDK4 ([2]; kinase CDK4): 0
KINOMEscan EPHA1 [3]: 23
KINOMEscan EPHB4 [4]: 26
KINOMEscan AURKB [5]: 10
KINOMEscan PI4KB [6]: 0
